Laboratory results taken from patent US20170157112A1, “HIF INHIBITORS” (UCL BUSINESS PLC, priority 2013, published 2017).
Like-named read-outs stand apart in the source and are kept apart here.

Key:
[1] = tested on: HIF activity; assay: U2OS-HRE-luc cell-based HRE-luciferase reporter assay; details: for inhibition of luciferase activity in U2OS-HRE cells: 1 μM, 1% O2 for 16 hours
Protocol: Cells were harvested and luciferase activity was measured in cell lysates using a standard luminometer. Data was represented as relative light units (RLU) for each condition.
(§1) Tubulin was used as a loading control.

[2] = tested on: eIF-2α phosphorylation; assay: Western blot of eIF-2α phosphorylation in U2OS-HRE-luc cells; assay type: cell-based; details: for eIF-2α phosphorylation (western blot): dose range, normoxia or hypoxia 16 hours
Protocol: Cells were harvested and components of the protein translational machinery were assessed by western blot analysis.
as §1

[3] = tested on: GLUT1; assay: GLUT1 protein by western blot in U2OS-HRE-luc cells; assay type: cell-based; details: 0.1-1 μM, hypoxia 16 hours
Protocol: (§2) Cells were harvested and assessed for VEGF and GLUT1 protein levels using a quantitative ELISA or by western blot analysis respectively. In addition, tumour cells were exposed to 0.5 or 2.5 μM HIF-Inhib1 in hypoxia, and tumour cell migration was measured using a 2-dimensional filter-based migration assay.

[4] = tested on: ERK1/2 and AKt/PKB; assay: Western blot of cellular signaling proteins ERK1/2 and AKt/PKB; assay type: cell-based; details: 1 μM, normoxia or hypoxia
Protocol: (§3) U2OS-HRE-luc described in A, were harvested for western blot analysis. FIG. 1B: Western blots show the effects of HIF-Inhib1 on HIF-1α protein in normoxia or hypoxia. Actin was used as a load control. FIG. 1C: Western blots show HIF-1α, phosphorylated ERK1/2 (ERK1/2-P), and AKT/PKB proteins in the absence (−) and presence of 1 μM HIF-Inhib1 in normoxia (norm) or hypoxia (hyp). Actin was used as a load control. FIG. 1D: Western blots show the effects of HIF-Inhib1 (1 μM) on HIF-2α protein levels. UT (untreated), and DMSO treated (−) controls are indicated;

[5] = tested on: VEGF; assay: VEGF protein by quantitative ELISA in U2OS-HRE-luc cells; assay type: cell-based
Protocol: as §2

[6] = tested on: VEGF; assay: PD endpoint VEGF protein in PC3LN5 orthotopic tumours; assay type: in vivo, mice; details: 75 mg/kg IP daily
Protocol: (§4) PC3LN5 (10^5 cells) were implanted intraprostatically into mice (Nu) and tumours were allowed to develop for 12 days. Mice received HIF-Inhib1 (75 mg·kg^−1) by IP injection daily for 2.5 weeks. Plasma and tumour samples were taken 24 h after the last dose and analysed by LCMS. Tumours were excised and homogenised, and assessed for PD endpoints HIF-1α and VEGF proteins. Local and distant lymph node metastases were also evaluated.

[7] = PK by LCMS in PC3LN5 subcutaneous xenograft mice; assay type: in vivo; details: for concentration at 24 h: intraperitoneal
Protocol: HIF-Inhib1 was administered IP dose of 100 mg·kg^−1 to Nu mice with PC3LN5 xenografts. Mice were killed at 24 h and xenografts removed for PD/PK analysis. Tumour samples were homogenised with 3× (v/w) PBS and 50 μL extracted by addition of 150 μL of methanol. Tumour extracts were analysed by LCMS using reverse-phase Synergi Polar-RP (Phenomenx, 50×2.1 mm) analytical column and positive ion mode ESI+ MRM.

[8] = tested on: PC3LN5 orthotopic xenograft; assay: PC3LN5 orthotopic mouse xenograft model: tumour growth, metastasis, body weight, PK; assay type: in vivo, mice
Protocol: as §4

[9] = tested on: HIF activity and HIF-α expression; assay: HIF activity and HIF-α expression in several cancer cell lines; assay type: cell-based
[10] = Tolerability of daily IP dosing in mice; details: mouse, in vivo
[11] = tested on: panel of tumour cell lines; assay: Growth inhibition / toxicity on tumour cell lines; assay type: cell-based
[12] = tested on: HIF-2α; assay: Western blot of HIF-2α protein induction in hypoxia; assay type: cell-based; details: 1 μM
Protocol: as §3

[13] = PC3LN5 orthotopic xenograft, 75 mg/kg IP daily

CCC1=C(C[C@@H]2NCCc3cc(OC)c(OC)cc32)C[C@@H]2c3ccccc3CCN2C1 [UCL-ONY-002]
inhibition of luciferase activity in U2OS-HRE cells [1]: inactive

CCC1=C(C[C@@H]2NCCc3cc(OC)c(OC)cc32)C[C@H]2c3ccccc3CCN2C1 [UCL-ONY-003]
inhibition of luciferase activity in U2OS-HRE cells [1]: inactive

CCC1=C(CC2c3ccc(OC)cc3CCN2S(C)(=O)=O)CC2c3ccccc3CCN2C1 (racemic) [UCL-ONY-004]
inhibition of luciferase activity in U2OS-HRE cells [1]: inactive

CC[C@H]1CN2CCc3cc(OC)c(OC)cc3[C@@H]2C[C@@H]1C[C@H]1NCCc2cc(OC)c(OC)cc21 [emetine, reference compound]
HIF activity (relative light units) ([1]; emetine 0.017 uM, hypoxia (1% O2) 16 hours): significantly blocked HIF activity | eIF-2α phosphorylation (western blot) [2]: blocks eIF-2α phosphorylation

CCC1=C(CC2NCCc3cc(OC)c(OC)cc32)CC2c3ccccc3CCN2C1 (stereo not drawn) [Compound I]
induction of HIF target protein GLUT1 [3]: blocks the induction | expression of key cellular signaling proteins ERK1/2 and AKt/PKB [4]: no significant effect | induction of HIF target protein VEGF ([5]; 0.1-1 μM, hypoxia 16 hours, ELISA): blocks the induction | potency in blocking VEGF induction in hypoxia ([5]; hypoxia): 250 to 500 nM | VEGF protein in PC3LN5 orthotopic tumours [6]: blocked | bioavailability in vivo ([7]; 100 mg/kg IP, PC3LN5 xenograft mice): Good Bioavailability | pharmacokinetic properties in vivo ([7]; mouse, in vivo): favourable pharmacokinetic properties | concentration at 24 h ([7]; mouse, plasma, 100 mg/kg IP, Nu mice with PC3LN5 xenografts, read-out: Plasma concentrations): 70 to 300 nM | concentration at 24 h ([7]; mouse, tumour (PC3LN5 subcutaneous xenograft), 100 mg/kg IP, PC3LN5 subcutaneous xenografts, Nu mice, LCMS, read-out: Tumour concentrations): 1900 to 35000 nM | PK profile in tumours ([8]; 75 mg/kg IP daily, 24 h after last dose, LCMS): good PK profile | Mouse body weight ([8]; 16 days of daily dosing, 75 mg/kg IP): not significantly affected | metastasis (local and distant lymph nodes) [8, 13]: significantly blocked | tumour growth [8, 13]: significantly blocked | HIF activity and HIF-α expression in response to hypoxia and growth factors [9]: inhibits both HIF activity and HIF-α expression | MTD [10]: ≤ 100 mg/kg | HIF activity (HRE-luciferase activity, RLU) ([1]; 0.1-1 μM, hypoxia (1% O2) 16 hours): blocks HIF activity | IC50 ([1]; read-out: IC50 for inhibiting HIF activity): ~500 nM | concentrations inhibiting growth of a panel of tumour cell lines [11]: submicromolar | potency in blocking eIF-2α phosphorylation [2]: 250 to 500 nM | eIF-2α phosphorylation (western blot) [2]: block eIF-2α phosphorylation | eIF-2α phosphorylation (western blot) ([2]; listed as HIF-Inhib1): blocked eIF-2α phosphorylation in a dose-dependent manner | HIF-2α protein induction in hypoxia [12]: blocks HIF-2α protein induction in hypoxia
